Among the data in patent US4599362A, “2-aryl-ethyl ether derivatives and insecticidal and acaricidal agents containing said derivatives” (priority 1980, dated 1986) are mortality, LC50 and LD50 values, retold here.

≈ marks a conversion by molar mass, not a printed value. Like-named read-outs stand apart in the source and are kept apart here.

The test system of data set [1] is resistant green rice leafhopper (collected at Nakagawara). Briefly: Test 3: Effect on Resistant Green Rice Leafhopper. The note with it: Nephotettix cincticeps, 24 h, read-out: Mortality (%) Green Rice Leafhopper Collected at Nakagawara. Type of data set: in vivo, Nephotettix cincticeps Uhler. The gist of the method: (§1)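 Rice seedlings (2–3 leaves) sprayed with emulsifiable-concentrate dilutions at 100 or 20 ppm, 3 ml per pot, air-dried, then infested with 10 female adults per pot. Mortality counted after 24 h and averaged over three pots.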

The subject of another data set is green peach aphids. Briefly: Test 5: Effect on green peach Aphid. It is filed as in vivo. Particulars: Myzus persicae, 24 hours, mortality class, read-out: Insecticidal Activity. On the procedure:
To a mixture of 20 parts of the compound of the present invention and 20 parts of Sorpol SM-200 (registered trademark for the product supplied by Toho Chemical Industrial Co., Ltd.) was added 60 parts of xylol, and the mixture was sufficiently blended. The obtained emulsifiable concentrate was diluted at a predetermined concentration with distilled water, and the obtained dilution was used.
Seedlings (having 3 to 4 leaves) of an eggplant grown on a pot were inoculated with green peach aphids and the insects were allowed to grow. The number of the insects was counted. A chemical dilution having a concentration of 100 ppm, prepared in the same manner as described in Test 1, was applied with a spray gun at a rate of 10 ml per pot. Then, the pot was placed in a glass green house. After 24 hours, the number of living insects was counted and the mortality was calculated.
The test was made on three pots, and the average value was calculated. In Table 6, mark "A" indicates a mortality higher than 95%, mark "B" indicates a mortality of 80 to 95%, mark "C" indicates a mortality of 50 to 80%, and mark "D" indicates a mortality lower than 50%.

Another data set in a line: Test 8: Fish Toxicity. Type of data set: in vivo. Particulars: carp, water, carps, concentration at which 1/2 of the test fishes were killed, read-out: Fish Toxicity, TLm48. On the procedure:
A water tank having a width of 60 cm, a length of 30 cm and a height of 40 cm was filled with water, and 10 yearling carps having a body length of about 5 cm were set free in the tank and adapted to the environment in the tank. A test compound was applied so that the concentration in water was 10, 1, or 0.1 ppm. After 48 hours, the numbers of killed and living carps were counted and the influences on the fishes were examined.

Data set [2] relates to third-instar larvae of diamond back moth. Briefly: Test 4: Effect on Diamond Back Moth. Type of data set: in vivo. Particulars: Plutella xylostella, 24 hours. A digest of the protocol: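 Emulsifiable concentrate diluted in water to 100 or 20 ppm and sprayed at 3 ml per cup onto cabbage leaves holding 10 third-instar diamondback moth larvae. Dead and living larvae counted after 24 h; mortality averaged over three cups.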

Data set [3] is described as follows: Test 9: Toxicity Test (acute oral, mice). Particulars: mouse, in vivo, po. The gist of the method: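 Compound dissolved or suspended in corn oil was given orally to male mice of 19–23 g body weight, at 0.2 ml per 10 g. Deaths and effects were recorded after 7 days.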
Data set [4] has as its system sensitive green rice leafhopper (collected at Chigasaki). Briefly: Test 3: Effect on Sensitive Green Rice Leafhopper. It is filed as in vivo. The note with it: Nephotettix cincticeps, female adults, 24 hours. The gist of the method:
as §1

The test system of a further data set is German cockroach. Briefly: Test 7: Effect on German Cockroach. Type of data set: in vivo. Particulars: Blattella germanica, male adults, 24 hours, agonized and killed; for mortality at 10 mg/m2: 10 mg/m^2; for mortality at 50 mg/m2: 50 mg/m^2. The gist of the method:
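Dish bottoms were treated with 50 or 10 mg/m^2 of test compound and air-dried, then 10 male adult cockroaches were released per dish and held at 25° C. Agonized and killed adults were counted after 24 hours, averaged over two dishes.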

The test system of a further data set is two-spotted spider mite. Nature of the data set: Test 6: Effect on Two-Spotted Spider mite adults. Type of data set: in vivo. The note with it: Tetranychus urticae; 500 ppm; adults; 24 hours; read-out: Mortality (%). The gist of the method: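 Kidney bean leaf discs (15 mm) on wet cotton, each holding 10 adult mites, sprayed with 3 ml of a 500 ppm dilution of an emulsifiable concentrate. Kept at 25° C; dead adults counted after 24 hours to give mortality, averaged over three discs.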

Data set [5] concerns Second-instar and fifth-instar larvae of tobacco cutworm. Nature of the data set: Test 2: Tobacco Cutworm Larva Dipping Test. Type of data set: in vivo.
The mark [6] stands for this setting: topical, 24 h, read-out: Mortality (%) Fifth-Instar Larvae.

The term LD50 denotes the dose at which mortality reaches 50%. Low readings indicate greater toxicity, high ones lower toxicity. Turning to `CCOc1ccc(C(C)(C)COCc2ccc(F)c(Oc3ccc(Br)cc3)c2)cc1` [Compound 68, 3-(4-Bromophenoxy)-4-fluorobenzyl 2-(4-ethoxyphenyl)-2-methylpropyl ether], the mortality at 20 ppm in data set [1], in data set [2] and in data set [4] was 100% in each case. The mortality at 100 ppm was 100% in data set [1], over 95% in the data set with green peach aphids, 100% in data set [2] and 100% in [4]. Besides, the LC50 at 48 h in the data set “Test 8: Fish Toxicity” is over 1 µg/mL. Moreover, in data set [3], the median lethal dose (LD50) at 168 h is over 500 mg/kg.
As for `Cc1ccc(C(C)(C)COCc2ccc(F)c(Oc3ccccc3)c2)cc1` [Compound 28, 3-phenoxy-4-fluorobenzyl 2-(4-methylphenyl)-2-methylpropyl ether], the mortality at 20 ppm in data set [1], in data set [2] and in data set [4] was 100% each time. Moreover, the mortality at 100 ppm in data set [1] was 100%; in the data set with green peach aphids it was over 95%; in data set [2], 100%; in [4] it was 100%. The LC50 at 48 h in the data set “Test 8: Fish Toxicity” was over 1 µg/mL. This compound came in with a mortality at 10 mg/m2 with German cockroach of 100%. This compound yielded a mortality at 50 mg/m2 in the data set on German cockroach of 100%.
Regarding `CC(C)(COCc1ccc(F)c(Oc2ccccc2)c1)c1cc(Cl)cc(Cl)c1` [Compound 48, 3-Phenoxy-4-fluorobenzyl 2-(3,5-dichlorophenyl)-2-methylpropyl ether], the mortality at 20 ppm in data set [1] and in data set [4] was 100% each time. The mortality at 100 ppm is 100% in [1], 80 to 95% in the data set with green peach aphids and 100% in data set [4]. Moreover, in the data set “Test 8: Fish Toxicity”, the LC50 at 48 h is over 1 µg/mL. Moreover, the LD50 at 168 h in data set [3] was over 500 mg/kg.
For `CC(C)(COCc1ccc(F)c(Oc2ccccc2)c1)c1ccc(-c2ccccc2)cc1` [Compound 61, 3-Phenoxy-4-fluorobenzyl 2-(4-biphenyl)-2-methylpropyl ether], in data set [1], the mortality at 20 ppm is 100% and the mortality at 100 ppm worked out at 100%. Besides, the mortality at 100 ppm in the data set on green peach aphids is over 95%. Further, in “Test 8: Fish Toxicity”, the LC50 at 48 h was over 1 µg/mL. In the data set on German cockroach, the mortality at 10 mg/m2 was 85% and the mortality at 50 mg/m2 was 100%. The LD50 at 168 h in data set [3] is over 500 mg/kg. Besides, in data set [4], the mortality at 20 ppm came out at 100% and the mortality at 100 ppm amounted to 100%. In addition, the mortality at 500 ppm with two-spotted spider mite is 100%.
Consider `CCCCOc1ccc(C(C)(C)COCc2ccc(F)c(Oc3ccccc3)c2)cc1` [Compound 49], for which, in [1], the mortality at 20 ppm is 100% and the mortality at 100 ppm is 100%. Further, in the data set on green peach aphids, the mortality at 100 ppm is over 95%. Also, in the data set “Test 8: Fish Toxicity”, the LC50 at 48 h was about 0.5 µg/mL (≈ 1.18 µM). In the data set with German cockroach, this compound showed a mortality at 10 mg/m2 of 100% and a mortality at 50 mg/m2 of 100%. In data set [4], this compound registered a mortality at 20 ppm of 100% and a mortality at 100 ppm of 100%.
With `CC(C)(CSCc1ccc(F)c(Oc2ccccc2)c1)c1ccc(Cl)cc1` [Compound 4, 3-Phenoxy-4-fluorobenzyl 2-(4-chlorophenyl)-2-methylpropyl thioether], the mortality at 100 ppm in the data set on green peach aphids is over 95%. Besides, the LC50 at 48 h in “Test 8: Fish Toxicity” is over 0.5 µg/mL. In addition, in the data set on German cockroach, the mortality at 10 mg/m2 turned out to be 90% and the mortality at 50 mg/m2 turned out to be 100%. In addition, in data set [2], the mortality at 20 ppm was 90% and the mortality at 100 ppm worked out at 100%. This compound also had an LD50 at 168 h in data set [3] of over 500 mg/kg. Further, the mortality at 500 ppm in the data set with two-spotted spider mite is 90%.
Regarding `CC(C)(COCc1ccc(F)c(Oc2ccccc2)c1)c1ccc(Br)cc1` [Compound 18, 3-Phenoxy-4-fluorobenzyl 2-(4-bromophenyl)-2-methylpropyl ether], the mortality at 100 ppm with green peach aphids is over 95%. In “Test 8: Fish Toxicity”, the LC50 at 48 h was over 0.1 µg/mL. Further, in the data set on German cockroach, the mortality at 10 mg/m2 amounted to 100% and the mortality at 50 mg/m2 was 100%. In [2], this compound registered a mortality at 20 ppm of 100% and a mortality at 100 ppm of 100%. This compound also gave an LD50 at 168 h in [3] of over 500 mg/kg. Besides, in the data set on two-spotted spider mite, the mortality at 500 ppm was determined as 100%.
For `COCSc1ccc(C(C)(C)COCc2ccc(F)c(Oc3ccccc3)c2)cc1` [Compound 60, 3-Phenoxy-4-fluorobenzyl 2-(4-methoxymethylthiophenyl)-2-methylpropyl ether], the values for the mortality at 20 ppm in [1], in data set [2] and in [4] were 100%, 95% and 90%, respectively. Moreover, the mortality at 100 ppm was 100% in data set [1], over 95% with green peach aphids, 100% in data set [2] and 100% in data set [4]. For the same compound, in “Test 8: Fish Toxicity”, the LC50 at 48 h is over 1 µg/mL. This compound gave a mortality at 10 mg/m2 in the data set with German cockroach of 100%. Also, the mortality at 50 mg/m2 in the data set on German cockroach worked out at 100%.
For `CCCCCOc1ccc(C(C)(C)COCc2ccc(F)c(Oc3ccccc3)c2)cc1` [Compound 38, 3-Phenoxy-4-fluorobenzyl 2-(4-n-pentyloxyphenyl)-2-methylpropyl ether], the mortality at 100 ppm with green peach aphids is over 95%. The LC50 at 48 h in the data set “Test 8: Fish Toxicity” is over 1 µg/mL. In the data set with German cockroach, the mortality at 10 mg/m2 amounted to 100% and the mortality at 50 mg/m2 was 100%. In addition, in [2], the mortality at 20 ppm was determined as 100% and the mortality at 100 ppm came to 100%. Moreover, the mortality at 500 ppm with two-spotted spider mite is 100%.
With `CC(C)(COCc1ccc(F)c(Oc2ccccc2)c1)c1ccccc1` [Compound 2, 3-Phenoxy-4-fluorobenzyl 2-phenyl-2-methylpropyl ether], the mortality at 20 ppm was 100% in [1]; 100% in data set [5] (20 ppm, second-instar larvae, 24 hours, read-out: Mortality (%) Second-Instar Larvae); 100% in data set [5] (setting [6]); 100% in data set [2]; 100% in data set [4]. Further, the mortality at 100 ppm in [1] is 100%; in the data set with green peach aphids it was over 95%; in [5] (100 ppm, second-instar larvae, 24 hours, read-out: Mortality (%) Second-Instar Larvae), 100%; in [5] (setting [6]), 100%; in [2], 100%; in data set [4] it was 100%. The LC50 at 48 h in “Test 8: Fish Toxicity” was over 1 µg/mL. Moreover, in the data set on German cockroach, the mortality at 10 mg/m2 is 100%. In the data set on German cockroach, the mortality at 50 mg/m2 came out at 100%. In data set [3], this compound yielded an LD50 at 168 h of over 500 mg/kg.
As for `CC(C)(COCc1ccc(F)c(Oc2ccccc2)c1)c1ccc(Oc2ccccc2)cc1` [Compound 52, 3-Phenoxy-4-fluorobenzyl 2-(4-phenoxyphenyl)-2-methylpropyl ether], the mortality at 100 ppm in the data set on green peach aphids is over 95%. Moreover, the LC50 at 48 h in “Test 8: Fish Toxicity” was over 1 µg/mL. In the data set on German cockroach, this compound came in with a mortality at 10 mg/m2 of 100% and a mortality at 50 mg/m2 of 100%. Moreover, in the data set with two-spotted spider mite, the mortality at 500 ppm was determined as 100%.
In the case of `CCC(C)(COCc1ccc(F)c(Oc2ccccc2)c1)c1ccc(Cl)cc1` (stereo not drawn) [Compound 20, 3-Phenoxy-4-fluorobenzyl 2-(4-chlorophenyl)-2-methylbutyl ether], in data set [1], the mortality at 20 ppm was 100% and the mortality at 100 ppm was 100%. The LC50 at 48 h in “Test 8: Fish Toxicity” is over 1 µg/mL. In the data set on German cockroach, this compound returned a mortality at 10 mg/m2 of 100% and a mortality at 50 mg/m2 of 100%. In data set [2], the mortality at 20 ppm was determined as 100% and the mortality at 100 ppm was 100%. In [3], this compound returned an LD50 at 168 h of over 500 mg/kg. Besides, in data set [4], the mortality at 20 ppm worked out at 100% and the mortality at 100 ppm stood at 100%. In addition, the mortality at 500 ppm in the data set on two-spotted spider mite was found to be 100%.
